Key:
P-selectin [1] = biological target: T1, P-selectin (Homo sapiens, UniProt P16109); assay: P-selectin binding ELISA to immobilized sulfatides (cell free); conditions: inhibition of P-selectin binding to immobilized sulfatide
T1 construct: consists of the human lectin domain, the EGF domain, and two complement repeats of the human selectins; made in house
Experimental: Based on the availability of soluble forms of P-selectin prepared as described by Aruffo, A., et al., Cell, 67, 35-44 (1991), a binding ELISA based assay modified from Foxall, et al., J., Cell Biol., 117, 895-902 (1992) was developed to measure inhibitors of P-selectin binding to immobilized sulfatides. Such inhibitors were tested in the assay described below.
0.1 ml of sulfatide (SIGMA) or lysosulfatide (SIGMA) each at 1 μg/ml in MeOH were added to the wells of a 96-well ELISA plate (ProBind, Falcon) and allowed to dry overnight at room temperature. The next day the antigen coated plates were blocked for 1.5 hours at room temperature with 5% BSA (ICN) in buffer containing 20 mM Hepes and 0.15M NaCl, pH 8.0. Wild type P-selectin and mutants thereof were first mixed with HRP-conjugated goat anti-human lgG (Fisher Scientific), serially diluted and then incubated for 30 minutes at 37° C. in buffer containing 20 mM Hepes, 0.15M NaCl, 1% BSA and 0.8 mM CaCl2, pH 8.0 prior to addition to the BSA blocked plates. Following the 30 minute preincubation, the fusion protein-HRP conjugate immunocomplexes were incubated on the blocked antigen coated plates for 45 minutes at 37° C. in the presence or absence of the test compounds and then washed to remove any unbound proteins. Bound complexes were detected by addition of substrate buffer (95 mM NaOAc.3H2 O, 5 mM citric acid monohydrate, 1.4 mM urea/H2O2) containing 3, 3', 5, 5' Tetramethylbenzidine (SIGMA). Reactions were stopped by the addition of 3N sulfuric acid and the absorbance read on an ELISA reader at dual wavelengths 450 and 630 nm. The efficacy of these compounds was compared to that of sulfatide (positive control) or to lysosulfatide (negative control). The data is obtained as percent inhibition of specific binding [formula] and a plot of dose vs. percent inhibition of Rg binding is generated in which IC50 (μM) is calculated and reported as cell free data in Table 1.

P-selectin Rg = biological target: T2, P-selectin Rg (Homo sapiens, UniProt P16109); assay: HL-60 cell binding to P-selectin Rg; format: cell-based; conditions: HL-60 cells, binding to P-selectin Rg coated wells
T2 construct: consists of the human lectin domain, the EGF domain, and two complement repeats of the human selectins; made in house
T2 sequence (P16109 with tags, fused parts or gaps limits assumed): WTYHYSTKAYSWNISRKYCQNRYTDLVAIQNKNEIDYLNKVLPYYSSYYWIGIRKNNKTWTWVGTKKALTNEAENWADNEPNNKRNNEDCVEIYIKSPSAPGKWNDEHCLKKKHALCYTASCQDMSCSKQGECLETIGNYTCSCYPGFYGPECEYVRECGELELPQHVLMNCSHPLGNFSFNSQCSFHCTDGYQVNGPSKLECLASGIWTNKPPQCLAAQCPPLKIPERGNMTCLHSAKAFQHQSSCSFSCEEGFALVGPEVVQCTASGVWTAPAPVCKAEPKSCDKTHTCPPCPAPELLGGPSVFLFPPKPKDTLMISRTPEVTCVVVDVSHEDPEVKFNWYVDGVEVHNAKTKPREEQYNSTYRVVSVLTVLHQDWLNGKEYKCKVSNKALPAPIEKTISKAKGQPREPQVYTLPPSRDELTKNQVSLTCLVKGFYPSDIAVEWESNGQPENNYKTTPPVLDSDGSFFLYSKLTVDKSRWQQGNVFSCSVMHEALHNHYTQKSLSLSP
Experimental: 2. HL-60 Cell Binding to P- and E-Selectin RG
The chimeric P- and E-selectin receptor globulin (Rg) consists of the human lectin domain, the EGF domain, and two complement repeats of the human selectins fused to the hinge, CH1 and CH2 domains of human IgG1. These proteins were prepared as described by Aruffo, et al., Cell (1991) 67: 35-44; Walz, et al., Science (1990) 250, 1132-1135.
The HL-60 cell line, obtained from the American Type Culture Collection, ATCC No. CCL240, was employed to investigate P-selectin Rg binding. Assays were done in 96-well tissue culture dishes. The wells were first coated with 0.5 ug goat anti-human Fc antiserum overnight, and nonspecific binding sites were blocked by incubation of the wells with 1% nonfat dry milk in phosphate buffered saline (PBS containing 0.9 mM CaCl2 and 0.8 mM MgSO4) for 30 minutes. The Rg was then bound to the anti Fc-coated wells by incubating 50 ng in 50 ul of PBS for two hours. Cells, washed twice and resuspended in PBS to remove traces of medium components, were labeled with 10 uM calcein acetoxy methyl ester for 30 minutes at 3×10^7 cells per ml at room temperature. Serum-containing medium (RPMI with 20% fetal calf serum) was added, and the cells washed, followed by resuspension in PBS and a further spin. The labeled cells, resuspended in PBS, were added to twice washed Rg-containing wells at 200,000 per well. Following a 30 minute incubation with slow shaking, the wells were aspirated and washed three times with PBS to remove unbound cells. To certain wells were added known numbers of cells for determination of a standard curve of fluorescent units per cell. The fluorescence on the plate was quantitated using a fluorescent plate reader. Following subtraction of a blank representing the binding of cells to non-Rg containing wells (<5000 cells), the specific binding to P- or E- selectin was determined.
Inhibitors of cell binding
Test compounds were prepared by dissolution to a final concentration of 20 mg/ml in dimethyl sulfoxide (DMSO), diluted in PBS to 2 mg/ml, and briefly sonicated prior to use. The Rg coated wells were preincubated at room temperature for 15 minutes with the inhibitor, and 200,000 cells were added to yield the final indicated inhibitor concentration in 160 ul of PBS. The data is obtained as percent inhibition of specific binding: [formula] and a plot of dose vs. percent inhibition of Rg binding is generated in which IC50 (μM) is calculated and reported in Table 1.

rats = assay: Reverse passive Arthus reaction (RPA) in rats; format: in vivo, Male Sprague Dawley rats; conditions: 3 mg single dose IV, 4 hours
Description: 3. Reverse Passive Arthus Reaction in Rats
The reverse passive Arthus reaction in rats is a modification of the method by Mulligan et al., as described in J. Clin. Invest. (1991) 88: 1396-1406. This is an experimental model in which the interaction of antigen-antibodycomplexes and complement leads to a severe vasculitis that is associated with edema, induration, erythema and hemorrhage. The interaction between the antigen-antibody complexes and complement leads to a localized influx of neutrophils. These neutrophils release a variety of mediators that are associated with tissue damage and vascular permeability. The localized inflammatory reaction is measured using different techniques i.e., vascular permeability and neutrophil influx which is evaluated both biochemically and microscopically.
Male Sprague Dawley specific pathogen-free rats with jugular vein cannulae (280-320 g, Hill Top Labs, Pa.) are used in these studies. Animals are acclimated for at least 1 day and individually housed in stainless steel cages. The dorsal region of the rats is closely clipped 2 days prior to the experiments and divided into 4 sites on each side of the midline. Prior to all injections the rats are sedated with 0.4 ml per 300 gm rat of ketamine/rompun [1000 mg (10 ml) of ketamine HCL is mixed with 40 mg (2.0 ml) Rompun] administered IP and or inhalation anesthesia with metafane (methoxyflurane).
Bovin Serum Albumin (BSA) and rabbit polyclonal IgG rich in anti-BSA are purchased from Sigma Chemical Co. (St. Louis, Mo.). Radiolabelled ^125 I-BSA (spAct 1-5 μCi/μg) is purchased from Dupont NEN (Boston, Mass.).
Each rat is administered intradermal (ID) injection of (0.4 mg, 0.6 mg and 0.8 mg) anti-BSA in a volume of 100 μl per injection in normal saline. The ID injections are randomized near the mid dorsal region on both sides of the back bone. Immediately after the ID injections of the anti-BSA, the rats are administered intravenous (IV) injections of BSA (10 mg in 1.0 ml) in normal saline containing ^125 I labeled BSA (1 μCi/ml BSA or 5.0 μCi/kg body wt) for quantification of dermal vascular injury. Anti-inflammatory agents such as inhibitors of adhesion molecules of the present invention are administered IV at a single dose of 3 mg immediately after BSA. Four (4) hours after the IV injection of BSA, the rats are anesthetized with metafane and 2 to 3 ml of blood is withdrawn via the cannula into an anticoagulant containing (EDTA or Heparin) tube and plasma separated and saved for neutrophil and albumin quantitation. The rats are killed and the skin surrounding the injection site (15 mm diameter) is punched out and weighed. The skin samples and a fixed volume of plasma (0.1 to 1.0 ml) is analyzed in a gamma-counter for ^125 I content. Skin samples from the contralateral side are processed and analyzed for myeloperoxidase activity (MPO) as a measure of neutrophil accumulation. As needed, samples are also processed for histological evaluation of the reacted sites.
Vascular Permeability (VP)
The calculation of the plasma protein exudation into skin is made by determining the radioactivity in the tissue and relating this to the level of radioactive albumin in the blood at the time of sacrifice. […] [formula]
Percent inhibition of the test compound at 3 mg was determined as follows: [formula] Myeloperoxidase (MPO)
MPO is located in the azurophil granules of polymorphonuclear leukocytes (PMN). Because of its abundance in these cells (5% dry weight), this enzyme is used as a marker for tissue neutrophil content. For tissue MPO content, the method of Bradley, et al., was used as described in J. Invest. Dermatol. (1982) 78: 206-209. Biopsies from each treatment group were placed in plastic tubes (15×100 mm) containing 10 ml of 0.5% hexadecyltrimethylammonium bromide (HTAB) in 0.05M potassium phosphate buffer pH 6.0. The tissue was then homogenized with a Brinkmann Polytron homogenizer (10s). […]

P-selectin [2] = conditions: Larsen et al.; Erbe et al.; Aruffo et al.; cited from earlier work
P-selectin [3] = conditions: cells grown in the presence of sodium selenate; cited from earlier work
P-selectin [4] = conditions: Skinner et al.; cited from earlier work

T1 sequence (P16109 with tags, fused parts or gaps limits assumed): as above

CCCCCCCCCCCCC/C=C/[C@@H](OC(=O)c1ccccc1)[C@H](CO[C@H]1O[C@H](COS(=O)(=O)O)[C@H](OS(=O)(=O)O)[C@H](OS(=O)(=O)O)[C@H]1OS(=O)(=O)O)NC(=O)CCCCCCCCCCCCCCC [Example 23, (2S,3R,4E)-3-Benzoyloxy-2-hexadecanoylamino-1-[2,3,4,6-tetra-O-(sodiumoxysulfonyl)-α-D-galactopyranosyloxy]-4-octadecene]
IC50 (P-selectin [1]): > 8000 nM
IC50 (P-selectin Rg): 2600 nM
RPA MPO % Inhib. (rats; myeloperoxidase): 26.4%
RPA VP % Inhib. (rats; vascular permeability): 0%

CC(=O)N[C@H]1C(O)O[C@H](CO)[C@@H](O[C@@H]2O[C@H](CO)[C@H](O)[C@H](O)[C@H]2O)[C@@H]1O[C@@H]1O[C@@H](C)[C@@H](O)[C@@H](O)[C@@H]1O (stereo partly shown) [Le^x]
P-selectin has been shown to bind (P-selectin [2]): shown to bind

O=[Se](=O)(O)O [sodium selenate]
binding of P-selectin to myeloid cell lines (P-selectin [3]): can be inhibited

dextran sulfate
inhibit P-selectin mediated adhesion (P-selectin [4]): inhibit P-selectin mediated adhesion

fucoidan
inhibit P-selectin mediated adhesion (P-selectin [4]): inhibit P-selectin mediated adhesion

heparin
inhibit P-selectin mediated adhesion (P-selectin [4]): inhibit P-selectin mediated adhesion

sialyl-Le^x
P-selectin has been shown to bind (P-selectin [2]): shown to bind

— patent publication US5663151A, “Sulfated α-glycolipid derivatives as cell adhesion inhibitors” (Bristol-Myers Squibb Company, priority 1995, dated 1997)
